Measurements: ChEMBL document CHEMBL5356964, “Design, synthesis and anti-rheumatoid arthritis activity of target TLR4 inhibitors” (Bioorg Med Chem, 2024)

Assays:
[1] = Antiproliferative activity against rat Synovial cell assessed as inhibition of cell growth incubated for 48 hrs by CCK-8 assay; format: functional, cell-based
[2] = system: RAW264.7; test: Antiproliferative activity against LPS-induced- mouse RAW264.7 cells assessed as inhibition of cell growth incubated for 24 hrs by CCK-8 assay; format: functional, cell-based; settings: RAW264.7, 24 h
[3] = system: RAW264.7; test: Antiarthritic activity against LPS-induced mouse RAW264.7 cells assessed as reduction in IL-1beta level at 1 uM incubated for 24 hrs (Rvb 665.1 +/- 82.1 pg/L); format: functional
[4] = system: RAW264.7; test: Antiarthritic activity against LPS-induced mouse RAW264.7 cells assessed as reduction in IL-6 level at 1 uM incubated for 24 hrs (Rvb 231.1 +/- 24.2 pg/L); format: functional
[5] = system: RAW264.7; test: Antiarthritic activity against LPS-induced mouse RAW264.7 cells assessed as reduction in TNF-alpha level at 1 uM incubated for 24 hrs (Rvb 653.3 +/- 70.1 pg/L); format: functional
[6] = biological target: Toll-like receptor 4 (Homo sapiens, UniProt O00206); test: Inhibition of TLR4 (unknown origin) using TMB as substrate incubated for 90 mins
Toll-like receptor 4, sequence (O00206 whole entry): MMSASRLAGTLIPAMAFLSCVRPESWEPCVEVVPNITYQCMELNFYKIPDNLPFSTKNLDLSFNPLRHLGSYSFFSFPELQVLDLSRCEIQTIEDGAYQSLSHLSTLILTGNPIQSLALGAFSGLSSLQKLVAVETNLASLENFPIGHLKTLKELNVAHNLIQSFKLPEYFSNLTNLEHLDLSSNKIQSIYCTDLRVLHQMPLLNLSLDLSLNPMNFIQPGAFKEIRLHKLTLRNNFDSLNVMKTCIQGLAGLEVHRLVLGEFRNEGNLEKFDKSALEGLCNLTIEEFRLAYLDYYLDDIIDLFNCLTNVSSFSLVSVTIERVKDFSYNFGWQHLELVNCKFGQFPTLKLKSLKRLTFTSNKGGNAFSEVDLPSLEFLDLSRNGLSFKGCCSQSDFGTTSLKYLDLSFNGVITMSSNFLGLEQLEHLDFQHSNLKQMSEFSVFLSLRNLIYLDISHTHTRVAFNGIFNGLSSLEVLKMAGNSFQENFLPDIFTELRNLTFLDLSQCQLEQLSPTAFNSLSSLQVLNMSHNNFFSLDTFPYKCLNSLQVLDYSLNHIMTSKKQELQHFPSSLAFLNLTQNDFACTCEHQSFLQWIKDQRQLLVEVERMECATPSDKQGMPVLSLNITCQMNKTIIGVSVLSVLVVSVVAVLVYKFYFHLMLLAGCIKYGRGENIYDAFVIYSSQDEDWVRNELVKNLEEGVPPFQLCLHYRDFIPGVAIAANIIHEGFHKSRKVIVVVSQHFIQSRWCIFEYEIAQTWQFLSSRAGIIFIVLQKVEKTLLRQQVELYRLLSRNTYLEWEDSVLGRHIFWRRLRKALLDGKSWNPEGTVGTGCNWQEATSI

Structure (SMILES): CC(=O)CC(=O)C1CCCCC1=O (stereo unspecified)
- IC50 [1]: 4.45 µM
- IC50 [2]: 3.11 µM

Structure (SMILES): CC(=O)CC(=O)C1CC(C2CCC3(CC2)OCCO3)CCC1=O (stereo unspecified)
- IC50 [1]: 5.22 µM
- IC50 [2]: 2.51 µM

Structure (SMILES): CCCC1CCC(C2CCC(=O)C(C(=O)CC(C)=O)C2)CC1 (stereo unspecified)
- Activity [3]: 545.9 pg/L
- Activity [4]: 180.7 pg/L
- IC50 [1]: 3.51 µM
- IC50 [2]: 1.71 µM
- Activity [5]: 478.96 pg/L
- IC50 [6]: 1.78 µM

Structure (SMILES): CC(=O)CC(=O)C1CC(C(C)(C)C)CCC1=O (stereo unspecified)
- IC50 [1]: 6.43 µM
- IC50 [2]: 2.93 µM

Structure (SMILES): CC(=O)CC(=O)C1CC(NC(=O)OCc2ccccc2)CCC1=O (stereo unspecified)
- IC50 [1]: 4.25 µM
- IC50 [2]: 2.35 µM

Structure (SMILES): CC(=O)CC(=O)C1CC(NC(=O)OC(C)(C)C)CCC1=O (stereo unspecified)
- IC50 [1]: 5.11 µM
- IC50 [2]: 2.67 µM
